Test results from patent EP3033337B1, “SUBSTITUTED IMIDAZOLES AS N-TYPE CALCIUM CHANNEL BLOCKERS” (Janssen Pharmaceutica NV, priority 2013, dated 2015).
Read-outs that look alike come from different tables or passages of the source. Each block holds one compound with its values, some of them ahead of it.

Assays:
human N-type Ca channel [1] = molecular target: T1, human N-type Ca channel (Homo sapiens, UniProt Q00975); assay: Electrophysiological response, QPatch (depolarization -80 mV to +20 mV)
human N-type Ca channel [2] = molecular target: T1, human N-type Ca channel; assay: Calcium influx assay (FDSS), KCl depolarization, Fluo8 dye; type: cell-based; parameters: host or cells: HEK 293; conditions: HEK 293 cells expressing human N-type Ca channel; 100 mM KCl; read-out: N Type IC50 Data FDSS
Description: All cell culture reagents were procured from HyClone and other reagents were from Fisher. Recombinant HEK 293 cells expressing human N-type Ca channel (Millipore) were maintained in DMEM F12 containing 10% FBS and selection antibiotics at 37 °C in 5% CO2.
Cells were incubated at 30 °C in 5% CO2 overnight. The medium was removed and cells were loaded with Fluo8 dye (AAT Bioquest) at 37 °C and 30 °C, 30 min each in darkness. Cells were washed four times with wash buffer (16 mM Herep pH 7.2, 2 mM CaCl2, 1 mM MgCl2, 5 mM glucose, 140 mM choline chloride and 2 mM KCl) leaving 15 µL buffer after the last wash. Compounds of Formula (I), serially diluted, were added to the cell plate. The plates were incubated in darkness for 15 min. Cells were depolarized with 100 mM KCl and Ca influx was measured.

[3] = N Type IC50 Data Qpatch Pulse=1, Pulse=1, concentration range 0.01-1 µM
[4] = read-out: N Type IC50 Data Qpatch Pulse=15, Pulse=15, concentration range 0.01-1 µM
[5] = N Type IC50 Data Qpatch Pulse=15, Pulse=15, concentration range 0.01-1 µM
[6] = N Type IC50 Data Qpatch Pulse=1, Pulse=1, concentration range 0.3-10 µM
[7] = N Type IC50 Data Qpatch Pulse=15, Pulse=15, concentration range 0.3-10 µM
[8] = Pulse=1, concentration range 0.01-1 µM
[9] = Pulse=15, concentration range 0.01-1 µM
[10] = read-out: N Type IC50 Data Qpatch Pulse=1, Pulse=1, concentration range 0.01-1 µM
[11] = Pulse=15, concentration range 0.01-0.3 µM
[12] = N Type IC50 Data Qpatch Pulse=1, Pulse=1, concentration range 0.01-0.3 µM
[13] = read-out: Qpatch Pulse=1 (percent inhibition)

T1 sequence (Q00975 whole entry): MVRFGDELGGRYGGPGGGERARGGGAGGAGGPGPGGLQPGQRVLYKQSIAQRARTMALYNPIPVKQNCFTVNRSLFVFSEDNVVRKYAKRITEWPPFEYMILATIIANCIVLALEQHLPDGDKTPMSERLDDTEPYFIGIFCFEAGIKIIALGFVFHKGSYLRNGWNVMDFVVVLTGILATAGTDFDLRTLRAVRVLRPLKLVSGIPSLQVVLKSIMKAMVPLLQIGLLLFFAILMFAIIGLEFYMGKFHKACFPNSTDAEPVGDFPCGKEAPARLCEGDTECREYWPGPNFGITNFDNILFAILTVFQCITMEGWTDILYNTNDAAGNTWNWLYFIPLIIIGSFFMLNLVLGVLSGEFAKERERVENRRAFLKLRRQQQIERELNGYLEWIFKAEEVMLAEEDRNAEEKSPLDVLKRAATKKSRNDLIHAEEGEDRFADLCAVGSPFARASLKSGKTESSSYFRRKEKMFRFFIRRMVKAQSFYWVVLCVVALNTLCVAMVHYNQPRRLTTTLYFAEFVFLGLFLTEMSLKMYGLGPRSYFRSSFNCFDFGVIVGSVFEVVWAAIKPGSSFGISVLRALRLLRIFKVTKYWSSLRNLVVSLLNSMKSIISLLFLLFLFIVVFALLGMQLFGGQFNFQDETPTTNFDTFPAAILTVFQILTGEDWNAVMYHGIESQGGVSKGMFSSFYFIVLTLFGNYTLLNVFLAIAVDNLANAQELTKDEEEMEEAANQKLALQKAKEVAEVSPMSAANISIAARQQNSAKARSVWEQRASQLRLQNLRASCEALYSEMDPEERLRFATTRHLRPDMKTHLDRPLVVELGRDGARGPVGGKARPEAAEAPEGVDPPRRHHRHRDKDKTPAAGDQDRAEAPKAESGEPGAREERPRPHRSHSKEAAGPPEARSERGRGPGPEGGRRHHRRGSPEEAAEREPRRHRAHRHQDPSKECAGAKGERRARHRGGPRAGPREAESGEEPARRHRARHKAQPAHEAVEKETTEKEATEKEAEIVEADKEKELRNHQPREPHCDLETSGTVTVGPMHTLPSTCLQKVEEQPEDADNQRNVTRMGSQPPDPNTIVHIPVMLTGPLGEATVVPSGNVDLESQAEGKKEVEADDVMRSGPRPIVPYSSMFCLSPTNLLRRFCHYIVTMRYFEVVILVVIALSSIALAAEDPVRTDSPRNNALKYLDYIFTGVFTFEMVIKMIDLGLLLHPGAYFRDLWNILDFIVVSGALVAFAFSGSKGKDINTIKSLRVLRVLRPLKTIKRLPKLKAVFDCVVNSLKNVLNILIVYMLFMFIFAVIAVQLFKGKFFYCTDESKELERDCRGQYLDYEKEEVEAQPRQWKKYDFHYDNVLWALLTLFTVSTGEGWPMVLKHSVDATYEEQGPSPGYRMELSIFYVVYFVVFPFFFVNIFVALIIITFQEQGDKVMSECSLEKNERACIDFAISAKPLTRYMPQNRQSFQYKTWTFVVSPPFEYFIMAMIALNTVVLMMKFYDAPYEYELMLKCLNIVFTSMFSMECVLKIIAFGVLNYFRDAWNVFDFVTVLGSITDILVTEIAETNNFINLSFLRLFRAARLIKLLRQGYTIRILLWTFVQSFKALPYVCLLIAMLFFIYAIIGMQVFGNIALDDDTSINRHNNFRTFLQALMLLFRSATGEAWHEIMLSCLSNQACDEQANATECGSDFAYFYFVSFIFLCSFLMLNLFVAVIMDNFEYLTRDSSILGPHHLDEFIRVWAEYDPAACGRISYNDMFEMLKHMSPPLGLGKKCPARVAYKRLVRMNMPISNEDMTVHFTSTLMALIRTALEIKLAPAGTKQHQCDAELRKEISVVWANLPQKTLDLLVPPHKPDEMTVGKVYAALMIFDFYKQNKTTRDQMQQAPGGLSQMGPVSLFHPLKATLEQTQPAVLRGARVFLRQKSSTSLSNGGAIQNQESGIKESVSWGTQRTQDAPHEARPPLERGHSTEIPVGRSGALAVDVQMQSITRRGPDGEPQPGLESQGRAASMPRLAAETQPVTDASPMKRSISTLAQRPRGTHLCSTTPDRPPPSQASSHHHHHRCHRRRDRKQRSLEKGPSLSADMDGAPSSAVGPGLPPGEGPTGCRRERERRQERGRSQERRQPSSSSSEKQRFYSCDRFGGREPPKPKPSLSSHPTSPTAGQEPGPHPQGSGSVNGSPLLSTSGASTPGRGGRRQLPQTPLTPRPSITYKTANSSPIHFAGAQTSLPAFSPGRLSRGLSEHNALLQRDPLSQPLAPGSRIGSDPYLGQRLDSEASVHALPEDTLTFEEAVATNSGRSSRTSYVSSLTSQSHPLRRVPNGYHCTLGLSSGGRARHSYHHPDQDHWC
T1 sequence (P54284 whole entry partner): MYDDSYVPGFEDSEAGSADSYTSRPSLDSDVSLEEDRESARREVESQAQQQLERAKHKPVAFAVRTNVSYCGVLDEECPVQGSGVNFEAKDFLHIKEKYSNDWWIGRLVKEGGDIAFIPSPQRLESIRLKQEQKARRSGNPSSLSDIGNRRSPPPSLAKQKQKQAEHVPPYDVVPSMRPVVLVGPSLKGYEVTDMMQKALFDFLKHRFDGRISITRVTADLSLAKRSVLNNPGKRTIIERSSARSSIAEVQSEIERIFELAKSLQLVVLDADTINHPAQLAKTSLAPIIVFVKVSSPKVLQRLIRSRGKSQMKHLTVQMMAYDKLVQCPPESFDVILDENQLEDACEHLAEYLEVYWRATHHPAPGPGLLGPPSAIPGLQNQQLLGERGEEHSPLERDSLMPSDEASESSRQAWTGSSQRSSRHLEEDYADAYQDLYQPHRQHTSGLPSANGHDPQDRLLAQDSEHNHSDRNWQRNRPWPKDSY
T1 sequence (P54289 25-956 partner limits assumed): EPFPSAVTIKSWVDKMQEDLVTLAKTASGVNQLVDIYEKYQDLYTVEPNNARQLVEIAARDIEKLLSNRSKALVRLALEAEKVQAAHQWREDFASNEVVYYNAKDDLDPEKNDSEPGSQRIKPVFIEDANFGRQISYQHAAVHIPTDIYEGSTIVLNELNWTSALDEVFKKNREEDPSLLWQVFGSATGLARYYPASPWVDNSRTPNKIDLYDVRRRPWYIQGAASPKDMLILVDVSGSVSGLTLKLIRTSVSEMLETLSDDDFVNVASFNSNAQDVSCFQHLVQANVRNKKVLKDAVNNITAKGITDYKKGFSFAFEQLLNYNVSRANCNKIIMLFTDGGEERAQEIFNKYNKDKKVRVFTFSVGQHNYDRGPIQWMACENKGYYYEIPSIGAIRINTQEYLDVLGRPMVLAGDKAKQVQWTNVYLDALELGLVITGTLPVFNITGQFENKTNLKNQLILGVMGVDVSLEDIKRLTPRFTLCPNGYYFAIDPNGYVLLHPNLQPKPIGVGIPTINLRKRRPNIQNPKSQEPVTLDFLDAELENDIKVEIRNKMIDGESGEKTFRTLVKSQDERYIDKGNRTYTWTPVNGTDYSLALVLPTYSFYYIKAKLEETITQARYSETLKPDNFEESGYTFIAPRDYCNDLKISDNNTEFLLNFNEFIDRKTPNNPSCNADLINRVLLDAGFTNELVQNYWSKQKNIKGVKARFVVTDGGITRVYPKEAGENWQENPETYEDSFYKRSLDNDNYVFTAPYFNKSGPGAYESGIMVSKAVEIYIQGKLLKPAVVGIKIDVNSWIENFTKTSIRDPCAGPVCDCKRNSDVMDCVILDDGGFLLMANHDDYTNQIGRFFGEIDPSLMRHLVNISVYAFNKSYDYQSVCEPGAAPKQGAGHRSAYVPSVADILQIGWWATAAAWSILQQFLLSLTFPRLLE
T1 sequence (P54289 957-1103 partner limits assumed): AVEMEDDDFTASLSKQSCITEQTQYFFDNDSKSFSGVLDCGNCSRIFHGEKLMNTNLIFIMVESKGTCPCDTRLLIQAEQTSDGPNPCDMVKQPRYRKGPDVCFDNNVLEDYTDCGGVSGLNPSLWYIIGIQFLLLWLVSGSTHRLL

SMILES: CCOc1ncccc1-c1nc(C2CC(C)(C)OC(C)(C)C2)cn1-c1ccc(Cl)cc1 [Compound 51, 3-(1-(4-chlorophenyl)-4-(2,2,6,6-tetramethyltetrahydro-2H-pyran-4-yl)-1H-imidazol-2-yl)-2-ethoxypyridine]
- IC50 (human N-type Ca channel [1]; [3]): 0.179 µM
- IC50 (human N-type Ca channel [1]; [5]): 0.701 µM
- IC50 (human N-type Ca channel [2]): 0.029 µM

SMILES: CCOc1ncccc1-c1nc(C2CC(C)(C)OC(C)(C)C2)cn1-c1ccc(F)c(F)c1 [Compound 52, 3-(1-(3,4-difluorophenyl)-4-(2,2,6,6-tetramethyltetrahydro-2H-pyran-4-yl)-1H-imidazol-2-yl)-2-ethoxypyridine]
- IC50 (human N-type Ca channel [1]; [3]): 0.721 µM
- IC50 (human N-type Ca channel [1]; [4]): > 1 µM
- IC50 (human N-type Ca channel [2]): 0.115 µM

SMILES: COc1ccccc1-c1nc(C2CC(C)(C)OC(C)(C)C2)cn1-c1ccc(C(F)(F)F)nc1 [Compound 53, 5-(2-(2-methoxyphenyl)-4-(2,2,6,6-tetramethyltetrahydro-2H-pyran-4-yl)-1H-imidazol-1-yl)-2-(trifluoromethyl)pyridine]
- IC50 (human N-type Ca channel [1]; [6]): 6.5 µM
- IC50 (human N-type Ca channel [1]; [7]): 2.01 µM
- IC50 (human N-type Ca channel [2]): 0.096 µM

SMILES: COc1ncccc1-c1nc(C2CC(C)(C)OC(C)(C)C2)cn1-c1ccc(C(F)(F)F)nc1 [Compound 54, 2-methoxy-3-(4-(2,2,6,6-tetramethyltetrahydro-2H-pyran-4-yl)-1-(6-(trifluoromethyl)pyridin-3-yl)-1H-imidazol-2-yl)pyridine]
- IC50 (human N-type Ca channel [1]; [3]): 0.302 µM
- IC50 (human N-type Ca channel [1]; [5]): 0.237 µM
- N Type IC50 Data Qpatch Pulse=1 (human N-type Ca channel [1]; [8]): Poor fit
- N Type IC50 Data Qpatch Pulse=15 (human N-type Ca channel [1]; [9]): Poor fit
- IC50 (human N-type Ca channel [2]): 1.96 µM

SMILES: CC1(C)CC(c2cn(-c3ccc(C(F)(F)F)nc3)c(CC3CC3)n2)CC(C)(C)O1 [Compound 59, 5-(2-(cyclopropylmethyl)-4-(2,2,6,6-tetramethyltetrahydro-2H-pyran-4-yl)-1H-imidazol-1-yl)-2-(trifluoromethyl)pyridine]
- N Type IC50 Data Qpatch Pulse=1 (human N-type Ca channel [1]; Pulse=1, concentration range 0.01-0.3 µM): poor fit(0.01-0.3 µM)
- N Type IC50 Data Qpatch Pulse=15 (human N-type Ca channel [1]; [11]): poor fit(0.01-0.3 µM)
- IC50 (human N-type Ca channel [2]): 4.4 µM

SMILES: COc1ccccc1-c1nc(C2CC(C)(C)OC(C)(C)C2)cn1-c1ccc(OC(F)F)cc1 [Compound 61, 1-(4-(difluoromethoxy)phenyl) -2-(2-methoxyphenyl)-4-(2,2,6,6-tetramethyltetrahydro-2H-pyran-4-yl)-1H-imidazole]
- IC50 (human N-type Ca channel [1]; [12]): 0.751 µM
- IC50 (human N-type Ca channel [1]; N Type IC50 Data Qpatch Pulse=15, Pulse=15, concentration range 0.01-0.3 µM): 1.05 µM
- IC50 (human N-type Ca channel [2]): 0.037 µM

SMILES: COc1ccccc1-c1nc(C2CC(C)(C)OC(C)(C)C2)cn1-c1ccc(Br)c(F)c1 [Compound 62, 1-(4-bromo-3-fluorophenyl)-2-(2-methoxyphenyl)-4-(2,2,6,6-tetramethyltetrahydro-2H-pyran-4-yl)-1H-imidazole]
- IC50 (human N-type Ca channel [1]; [7]): 0.413 µM
- inhibition at 10 µM (human N-type Ca channel [1]; [13]): 81%
- IC50 (human N-type Ca channel [2]): 0.177 µM

SMILES: COc1ccccc1-c1nc(C2CC(C)(C)OC(C)(C)C2)cn1-c1ccc(F)c(Br)c1 [Compound 63, 1-(3-bromo-4-fluorophenyl)-2-(2-methoxyphenyl)-4-(2,2,6,6-tetramethyltetrahydro-2H-pyran-4-yl)-1H-imidazole]
- IC50 (human N-type Ca channel [1]; [7]): 3.5 µM
- inhibition at 10 µM (human N-type Ca channel [1]; [13]): 53%
- IC50 (human N-type Ca channel [2]): 0.213 µM

SMILES: COc1ncccc1-c1nc(C2CC(C)(C)OC(C)(C)C2)cn1-c1ccc(F)c(Br)c1 [Compound 64, 3-(1-(3-bromo-4-fluorophenyl)-4-(2,2,6,6-tetramethyltetrahydro-2H-pyran-4-yl)-1H-imidazol-2-yl)-2-methoxypyridine]
- IC50 (human N-type Ca channel [1]; [6]): 4.06 µM
- IC50 (human N-type Ca channel [1]; [7]): 1.72 µM
- IC50 (human N-type Ca channel [2]): 0.36 µM

SMILES: COc1ncccc1-c1nc(C2CC(C)(C)OC(C)(C)C2)cn1-c1ccc(Br)c(F)c1 [Compound 65, 3-(1-(4-bromo-3-fluorophenyl)-4-(2,2,6,6-tetramethyltetrahydro-2H-pyran-4-yl)-1H-imidazol-2-yl)-2-methoxypyridine]
- IC50 (human N-type Ca channel [1]; [7]): 8.6 µM
- inhibition at 10 µM (human N-type Ca channel [1]; [13]): 58%
- IC50 (human N-type Ca channel [2]): 0.225 µM

SMILES: COc1ccncc1-c1nc(C2CC(C)(C)OC(C)(C)C2)cn1-c1ccc(F)cc1 [Compound 69, 3-(1-(4-fluorophenyl)-4-(2,2,6,6-tetramethyltetrahydro-2H-pyran-4-yl)-1H-imidazol-2-yl)-4-methoxypyridine]
- inhibition at 10 µM (human N-type Ca channel [1]; [13]): 53%
- inhibition at 10 µM (human N-type Ca channel [1]; read-out: Qpatch Pulse=15 (percent inhibition)): 29%
- IC50 (human N-type Ca channel [2]): 1.43 µM

SMILES: COc1cccnc1-c1nc(C2CC(C)(C)OC(C)(C)C2)cn1-c1ccc(F)cc1 [Compound 70, 2-(1-(4-fluorophenyl)-4-(2,2,6,6-tetramethyltetrahydro-2H-pyran-4-yl)-1H-imidazol-2-yl)-3-methoxypyridine]
- inhibition at 10 µM (human N-type Ca channel [1]; [13]): 41%
- IC50 (human N-type Ca channel [2]): 0.871 µM

SMILES: COc1ncccc1-c1nc(C2CC(C)(C)OC(C)(C)C2)cn1-c1cc(F)ccc1F [Compound 71, 3-(1-(2,5-difluorophenyl)-4-(2,2,6,6-tetramethyltetrahydro-2H-pyran-4-yl)-1H-imidazol-2-yl)-2-methoxypyridine]
- IC50 (human N-type Ca channel [1]; [3]): 5.83 µM
- N Type IC50 Data Qpatch Pulse=15 (human N-type Ca channel [1]; [9]): poor fit(0.01- 1 µM)
- IC50 (human N-type Ca channel [2]): 0.422 µM

SMILES: COc1ncccc1-c1nc(C2CC(C)(C)OC(C)(C)C2)cn1-c1cc(F)cc(F)c1 [Compound 72, 3-(1-(3,5-difluorophenyl)-4-(2,2,6,6-tetramethyltetrahydro-2H-pyran-4-yl)-1H-imidazol-2-yl)-2-methoxypyridine]
- N Type IC50 Data Qpatch Pulse=1 (human N-type Ca channel [1]; [8]): poor fit(0.01- 1 µM)
- N Type IC50 Data Qpatch Pulse=15 (human N-type Ca channel [1]; [9]): poor fit(0.01- 1 µM)
- IC50 (human N-type Ca channel [2]): 2.4 µM

SMILES: COc1ncccc1-c1nc(C2CC(C)(C)OC(C)(C)C2)cn1-c1cc(F)cc(C#N)c1 [Compound 73, 3-fluoro-5-(2-(2-methoxypyridin-3-yl)-4-(2,2,6,6-tetramethyltetrahydro-2H-pyran-4-yl)-1H-imidazol-1-yl)benzonitrile]
- N Type IC50 Data Qpatch Pulse=1 (human N-type Ca channel [1]; [8]): poor fit(0.01- 1 µM)
- N Type IC50 Data Qpatch Pulse=15 (human N-type Ca channel [1]; [9]): poor fit(0.01- 1 µM)
- IC50 (human N-type Ca channel [2]): 8.16 µM

SMILES: CCOc1ccc(-n2cc(C3CC(C)(C)OC(C)(C)C3)nc2-c2cccnc2OC)cn1 [Compound 75, 3-(1-(6-ethoxypyridin-3-yl)-4-(2,2,6,6-tetramethyltetrahydro-2H-pyran-4-yl)-1H-imidazol-2-yl)-2-methoxypyridine]
- IC50 (human N-type Ca channel [1]; [6]): 9.8 µM
- IC50 (human N-type Ca channel [1]; [7]): 4.2 µM
- IC50 (human N-type Ca channel [2]): 2.06 µM

The next lines start with the values.

- IC50 (human N-type Ca channel [1]; [3]): > 1 µM
- IC50 (human N-type Ca channel [1]; [4]): > 1 µM
- IC50 (human N-type Ca channel [2]): 0.123 µM
SMILES: COc1ncncc1-c1nc(C2CC(C)(C)OC(C)(C)C2)cn1-c1ccc(Cl)cc1 [Compound 49, 5-(1-(4-chlorophenyl)-4-(2,2,6,6-tetramethyltetrahydro-2H-pyran-4-yl)-1H-imidazol-2-yl)-4-methoxypyrimidine]

- IC50 (human N-type Ca channel [1]; [3]): > 1 µM
- IC50 (human N-type Ca channel [1]; [5]): 0.971 µM
- IC50 (human N-type Ca channel [2]): 0.215 µM
SMILES: COc1nccnc1-c1nc(C2CC(C)(C)OC(C)(C)C2)cn1-c1ccc(Cl)cc1 [Compound 50, 2-(1-(4-chlorophenyl)-4-(2,2,6,6-tetramethyltetrahydro-2H-pyran-4-yl)-1H-imidazol-2-yl)-3-methoxypyrazine]

- IC50 (human N-type Ca channel [1]; [5]): 0.78 µM
- IC50 (human N-type Ca channel [2]): 0.384 µM
SMILES: CC1(C)CC(c2cn(-c3ccc(Cl)cc3)c(CC3CC3)n2)CC(C)(C)O1 [Compound 55, 1-(4-chlorophenyl)-2-(cyclopropylmethyl)-4-(2,2,6,6-tetramethyltetrahydro-2H-pyran-4-yl)-1H-imidazole]

- IC50 (human N-type Ca channel [1]; [10]): > 1 µM
- IC50 (human N-type Ca channel [1]; [4]): > 1 µM
- IC50 (human N-type Ca channel [2]): 1.67 µM
SMILES: CC1(C)CC(c2cn(-c3ccc(Cl)cc3)c(C3CC3)n2)CC(C)(C)O1 [Compound 56, 1-(4-chlorophenyl)-2-cyclopropyl-4-(2,2,6,6-tetramethyltetrahydro-2H-pyran-4-yl)-1H-imidazole]

- IC50 (human N-type Ca channel [1]; [10]): > 1 µM
- IC50 (human N-type Ca channel [1]; [4]): > 1 µM
- IC50 (human N-type Ca channel [2]): 10 µM
SMILES: CC1(C)CC(c2cn(-c3ccc(C#N)cc3)c(C3CC3)n2)CC(C)(C)O1 [Compound 57, 4-(2-cyclopropyl-4-(2,2,6,6-tetramethyltetrahydro-2H-pyran-4-yl)-1H-imidazol-1-yl)benzonitrile]

- IC50 (human N-type Ca channel [1]; [10]): > 1 µM
- IC50 (human N-type Ca channel [1]; [4]): > 1 µM
- IC50 (human N-type Ca channel [2]): 4.81 µM
SMILES: CC1(C)CC(c2cn(-c3ccc(C#N)cc3)c(CC3CC3)n2)CC(C)(C)O1 [Compound 58, 4-(2-(cyclopropylmethyl)-4-(2,2,6,6-tetramethyltetrahydro-2H-pyran-4-yl)-1H-imidazol-1-yl)benzonitrile]

- IC50 (human N-type Ca channel [1]; [12]): 0.247 µM
- N Type IC50 Data Qpatch Pulse=15 (human N-type Ca channel [1]; [11]): poor fit(0.01-0.3 µM)
- IC50 (human N-type Ca channel [2]): 0.321 µM
SMILES: CCOc1nccnc1-c1nc(C2CC(C)(C)OC(C)(C)C2)cn1-c1ccc(Cl)cc1 [Compound 60, 2-(1-(4-chlorophenyl)-4-(2,2,6,6-tetramethyltetrahydro-2H-pyran-4-yl)-1H-imidazol-2-yl)-3-ethoxypyrazine]

- IC50 (human N-type Ca channel [1]; [7]): 1.3 µM
- IC50 (human N-type Ca channel [2]): 0.049 µM
SMILES: COc1cnccc1-c1nc(C2CC(C)(C)OC(C)(C)C2)cn1-c1ccc(Cl)cc1 [Compound 66, 4-(1-(4-chlorophenyl)-4-(2,2,6,6-tetramethyltetrahydro-2H-pyran-4-yl)-1H-imidazol-2-yl)-3-methoxypyridine]

- IC50 (human N-type Ca channel [1]; [7]): 4.6 µM
- IC50 (human N-type Ca channel [2]): 0.109 µM
SMILES: COc1ccncc1-c1nc(C2CC(C)(C)OC(C)(C)C2)cn1-c1ccc(Cl)cc1 [Compound 68, 3-(1-(4-chlorophenyl)-4-(2,2,6,6-tetramethyltetrahydro-2H-pyran-4-yl)-1H-imidazol-2-yl)-4-methoxypyridine]
